Laboratory results: patent US10526297B2, “Benzylideneguanidine derivatives and therapeutic use for the treatment of protein misfolding diseases” (United Kingdom Research and Innovation, priority 2013, dated 2020)
Read-outs that look alike come from different tables or passages of the source.

Legend:
PPP1R15A or PPP1R15B = assay: Selectivity assessment inferred from the tests; type: cell-based; conditions: inferred from translation inhibition in stressed/non-stressed cells
HeLa cells [1] = assay: Cytoprotection from ER Stress (Test 1); conditions: 2.5 μg/ml tunicamycin 6 h, inhibitors 0.2-5 μM, WST-8 viability 48 h after tunicamycin, relative to control
HeLa cells [2] = assay: Assessment of Translation Rates in Stressed Cells (Test 3); conditions: tunicamycin 2.5 μg/ml together with compounds 50 μM, 35S-methionine labelling
HeLa cells [3] = conditions: tunicamycin, cited from earlier work
HeLa cells [4] = assay: Assessment of Translation Rates in Unstressed Cells (Test 2); type: cell-based; conditions: compounds 50 μM, 0.5-7.5 h, 35S-methionine labelling
Procedure: Following labelling, cells were washed with ice-cold PBS and lysed in 75 μl Laemmli Buffer. […] Gels were then stained with Coomassie Brilliant Blue R-250 and analyzed by phosphorimaging.

P0S63del mice = conditions: cited from earlier work
[5] = system: animal models of alpha-synucleinopathy; conditions: two animal models of alpha-synucleinopathy; cited from earlier work
[6] = system: G93A-SOD1 transgenic mouse; conditions: cited from earlier work
PPP1R15A (GADD34) = PPP1R15A (GADD34) (Homo sapiens, UniProt O75807); conditions: cited from earlier work
PPP1R15A (GADD34), sequence (O75807 whole entry, species assumed): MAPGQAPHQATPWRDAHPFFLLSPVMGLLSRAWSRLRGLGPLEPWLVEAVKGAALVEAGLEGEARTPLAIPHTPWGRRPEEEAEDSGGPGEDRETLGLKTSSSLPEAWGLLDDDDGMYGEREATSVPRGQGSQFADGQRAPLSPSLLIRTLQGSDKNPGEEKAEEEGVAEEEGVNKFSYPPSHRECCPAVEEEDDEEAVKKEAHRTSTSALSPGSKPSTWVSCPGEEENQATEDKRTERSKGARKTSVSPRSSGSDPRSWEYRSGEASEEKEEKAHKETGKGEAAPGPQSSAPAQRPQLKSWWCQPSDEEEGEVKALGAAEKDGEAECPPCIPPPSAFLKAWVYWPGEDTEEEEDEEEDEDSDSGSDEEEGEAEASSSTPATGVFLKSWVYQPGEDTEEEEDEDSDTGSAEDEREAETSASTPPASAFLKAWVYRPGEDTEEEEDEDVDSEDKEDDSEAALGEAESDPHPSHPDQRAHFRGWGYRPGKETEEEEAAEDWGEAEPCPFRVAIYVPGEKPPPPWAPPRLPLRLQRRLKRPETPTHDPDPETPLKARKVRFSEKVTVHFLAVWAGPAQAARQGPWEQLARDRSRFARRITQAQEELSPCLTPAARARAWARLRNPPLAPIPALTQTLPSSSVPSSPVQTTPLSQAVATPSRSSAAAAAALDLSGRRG

PPP1R15B (CReP) = biological target: T1, PPP1R15B (CReP) (Homo sapiens, UniProt Q5SWA1); conditions: constitutive PPP1R15B (CReP); cited from earlier work
T1 sequence (Q5SWA1 1-713): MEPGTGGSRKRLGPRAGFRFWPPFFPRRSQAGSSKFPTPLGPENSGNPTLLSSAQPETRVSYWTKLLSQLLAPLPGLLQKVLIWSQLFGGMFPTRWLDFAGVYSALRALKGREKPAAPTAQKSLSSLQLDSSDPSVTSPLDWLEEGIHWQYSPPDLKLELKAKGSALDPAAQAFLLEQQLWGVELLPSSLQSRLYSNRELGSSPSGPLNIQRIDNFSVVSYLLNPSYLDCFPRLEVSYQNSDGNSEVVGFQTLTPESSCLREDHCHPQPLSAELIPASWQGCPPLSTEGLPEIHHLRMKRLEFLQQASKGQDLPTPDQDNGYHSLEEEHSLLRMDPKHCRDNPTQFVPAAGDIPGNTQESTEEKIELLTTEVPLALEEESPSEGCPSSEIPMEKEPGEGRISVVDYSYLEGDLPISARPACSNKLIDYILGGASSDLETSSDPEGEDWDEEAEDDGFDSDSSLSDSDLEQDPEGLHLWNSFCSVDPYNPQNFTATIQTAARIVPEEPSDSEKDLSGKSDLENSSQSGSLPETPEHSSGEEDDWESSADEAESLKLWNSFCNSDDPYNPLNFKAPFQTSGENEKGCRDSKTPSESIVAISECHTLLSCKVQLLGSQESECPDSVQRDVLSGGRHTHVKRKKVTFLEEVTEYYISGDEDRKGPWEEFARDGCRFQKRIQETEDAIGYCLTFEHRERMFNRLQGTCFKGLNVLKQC

non-stressed cells = conditions: cited from earlier work
mutant Huntingtin = conditions: cell-based assays, cited from earlier work
[7] = system: Min6 and INS-1 pancreatic beta-cells; conditions: expression in the ER of Min6 and INS-1 cells; cited from earlier work
[8] = system: retinal pigment epithelium (RPE); conditions: rat AMD model; cited from earlier work
[9] = system: choroidal neovascularization (CNV); conditions: laser-induced rat AMD model; cited from earlier work
choroidal blood flow = conditions: in vivo; cited from earlier work
prion infected mice = conditions: mouse, in vivo; cited from earlier work

Row | Structure (SMILES) | Selectivity assessment Selectivity towards PPP1R15A or PPP1R15B (PPP1R15A or PPP1R15B) | Test 1 Survival following ER stress (increase %) (HeLa cells [1]) | Test 3 Translation attenuation after Tm (HeLa cells [2]) | Test 2 Translation inhibition in non-stressed cells (HeLa cells [4]) | further results
1 | Cc1nnc(N/N=C/c2ccccc2Cl)[nH]c1=O [Example 6, 2-chlorobenzaldehyde (6-methyl-5-oxo-4,5-dihydro-1,2,4-triazin-3-yl)hydrazone] | confirmed selective inhibitors of PPP1R15A | 120% | prolonged | – | –
2 | CCC1(C2=NCCN2)Cc2ccccc2O1 (stereo not shown) [efaroxan] | – | – | – | – | protection of cells from cytotoxic ER stress (in words) (HeLa cells [3]): Neither the α2-adrenergic receptor agonist clonidine, nor the α2-adrenergic receptor antagonist efaroxan protected cells
3 | N=C(N)N/N=C/c1ccccc1Br [Example 2, 1-[(E)-[(2-bromophenyl)methylidene]amino]-guanidine] | inhibit both PPP1R15A and B | 40% | prolonged | YES | –
4 | Cc1ccccc1/C=N/NC(=N)N [Example 4, 1-[(E)-[(2-methylphenyl)methylidene]amino]guanidine] | inhibit both PPP1R15A and B | 100% | prolonged | YES | –
5 | N=C(N)N/N=C/c1c(F)cccc1Cl [Example 15, 1-[(E)-[(2-chloro-6-fluorophenyl)methylidene]amino]guanidine] | – | 160% | prolonged | – | –
6 | N=C(N)N/N=C/c1c(F)cncc1Cl [Example 16, 1-[(E)-[(3-chloro-5-fluoropyridin-4-yl)methylidene]amino]guanidine] | – | 140% | – | YES | –
7 | COC(=O)NC(=N)N/N=C/c1ccccc1Cl [Example 9, methyl N-{N-[(E)-[(2-chlorophenyl)methylidene]amino]carbamimidoyl}carbamate] | – | 20% | – | – | –
8 | Clc1cccc(Cl)c1N=C1NCCN1 [clonidine] | – | – | – | – | protection of cells from cytotoxic ER stress (in words) (HeLa cells [3]): Neither the α2-adrenergic receptor agonist clonidine, nor the α2-adrenergic receptor antagonist efaroxan protected cells
9 | O=C(/C=C/c1ccccc1)NC(NC(=S)Nc1cccc2cccnc12)C(Cl)(Cl)Cl (stereo not shown) [Salubrinal] | – | – | – | – | motor capacity in rotarod analysis (P0S63del mice; P0S63del mice): regained almost normal motor capacity; toxicity (P0S63del mice; mouse, in vivo): toxic; disease manifestations [5]: significantly attenuates disease manifestations; life span [6]: extends the life span
10 | CC(=O)NC(=N)N/N=C/c1ccccc1Cl [Example 8, N-{N-[(E)-[(2-chlorophenyl)methylidene]amino]carbamimidoyl}acetamide] | inhibit both PPP1R15A and B | 100% | prolonged | YES | –
11 | NC(N)=N/N=C/c1c(Cl)cccc1Cl [Guanabenz, 2-(2,6-dichlorobenzylidene)hydrazinecarboximidamide] | – | – | – | – | EC50 (HeLa cells [3]; read-out: median effective concentration (cells surviving ER stress)): ~0.4 µM; protection of cells from cytotoxic ER stress (in words) (HeLa cells [3]): doubled the number of cells surviving ER stress; binding to PPP1R15A (PPP1R15A (GADD34)): binding to a regulatory subunit of protein phosphatase 1, PPP1R15A (GADD34); binding to PPP1R15B (PPP1R15B (CReP)): does not bind; translation inhibition in non-stressed cells (non-stressed cells): does not inhibit translation in non-stressed cells; mutant huntingtin accumulation (mutant Huntingtin): attenuating accumulation of mutant Huntingtin; mutant huntingtin accumulation (mutant Huntingtin; listed as guanabenz): reduces mutant huntingtin accumulation in cells; protection against lethal effects of Insulin Akita mutant expression [7]: protection against the lethal effects; protection of RPE from NalO3-induced degeneration [8]: significantly protected; development of choroidal neovascularization (CNV) [9]: inhibited the development of choroidal neovascularization (CNV); choroidal blood flow (choroidal blood flow): increased choroidal blood flow markedly; symptoms of prion infected mice (prion infected mice): reduces the symptoms
12 | N=C(N)N/N=C/c1ccncc1Cl [Example 13, 1-[(E)-[(3-chloropyridin-4-yl)methylidene]amino]guanidine] | – | 60-80% | – | – | –
13 | N=C(N)N/N=C/c1ccc(F)cc1Cl [Example 7, 1-[(E)-[(2-chloro-4-fluorophenyl)methylidene]amino]guanidine] | inhibit both PPP1R15A and B | 160% | prolonged | YES | –
14 | N=C(N)N/N=C/c1ccccc1F [Example 3, 1-[(E)-[(2-fluorophenyl)methylidene]amino]-guanidine] | – | 80% | prolonded | YES | –
